| SMILES | melting point |
| --- | --- |
| CCOC(=O)c1c(C(F)(F)F)nc(C(F)F)c(C(=O)OC)c1Cl | 24 to 25 °C |
| CC(C)[C@H](C[C@@H]1OC(C)(C)N(C(=O)OC(C)(C)C)[C@H]1CC1CCCCC1)C(=O)NCCNc1nc(N)n[nH]1 | 99 to 112 °C |
| Clc1nc(Cl)c2ncn(C3CCCCC3)c2n1 | 116 to 121 °C |
| CN(C)c1ccc(C(=CC(c2ccc(N(C)C)cc2)c2ccc(N(C)C)cc2)c2ccc(N(C)C)cc2)cc1 | 189 to 190 °C |
| COc1ccc(C2=NCc3nncn3-c3ccc(Cl)cc32)cc1 | 216 to 217 °C |
| CCN(CC)CCNC(=O)c1ccc2cc(I)ccc2n1 | 75 to 77 °C |
| CC(O)c1ccc(OCCCCl)c(O)c1 (stereo not drawn) | 107 to 109 °C |
| CCS(=O)(=O)NC(C(=O)NCCc1ccc(OC)c(OC)c1)c1ccc(Cl)cc1 (stereo not drawn) | 136 to 138 °C |
| CCCCCCCCCCCC(=O)c1ccc(/C=C/C(=O)O)o1 | 122 to 127 °C |
| CCCNCC(O)c1ccc(F)cc1 (stereo not drawn) | 58.6 to 78.8 °C |
| C[C@H](NC(=O)OC(C)(C)C)c1nc2c(C(F)(F)F)cccc2c(=O)o1 | 174 °C |
| CC1CCCC(C)N1C(=O)CSC#N (stereo not drawn) | 81 to 82 °C |
| CCOc1nc(C(F)(F)F)cc(=O)n1-c1cc(OC(C)C)c(Cl)cc1F | 101 to 103 °C |
| CCNc1nc2ccccc2s1 | 93 °C |
| BrCCNC(c1ccccc1)(c1ccccc1)c1ccccc1 | 108 to 109 °C |
| Nc1ccc(-c2noc(-c3cnn4c(C(F)(F)F)cc(-c5ccc(C(F)(F)F)c(Cl)c5)nc34)n2)cn1 | 234 °C |
| CC(C)[C@@H](Cc1ccc(C(C)(C)C)cc1)C(=O)N1C(=O)OC[C@H]1Cc1ccccc1 | 124 °C |
| CCOC(=O)c1cnc2n(c1=O)C(C)CCC2=NN (stereo not drawn) | 199 to 200 °C |
| O=C1Nc2ccccc2OC1CCCN1CCC(Cc2ccccc2)CC1 (stereo not drawn) | 108 °C |
| O=C(c1ccc(Nc2ccnc3cc(C(F)(F)F)ccc23)cc1)N1CCN(S(=O)(=O)c2ccc(F)cc2)CC1 | 251 to 253 °C |
| N#CC(=CNC1CC1)C(=O)c1cc(F)c(Cl)cc1Cl | 94 to 95 °C |

| SMILES | melting point |
| --- | --- |
| c1ccc(-c2cc3nnc(-c4cnccn4)n3nc2OCc2nc[nH]n2)cc1 | 255 °C |
| CN1C(=O)CC[C@]2(C)c3ccc(Sc4nc(-c5ccccc5)nc5ccccc45)cc3CC[C@@H]12 | 185 to 193 °C |
| CCCc1nc2ccccc2c(=O)n1Cc1ccc(-c2ccccc2-c2nnn[nH]2)cc1 | 171 to 172 °C |
| CN1CCN(Cc2ccc3nc(-c4ccc(Cl)c(C#Cc5cnc6cccnn56)c4)[nH]c3c2)CC1 | 156 to 157 °C |
| CC(C)CSc1nc(N)nc2c1ncn2C1C=CC(CO)C1 (stereo not drawn) | 127 to 129 °C |
| CC(=O)Nc1cc(Cc2ccc3c(C(=O)Nc4ccc(CN5CCN(C)CC5)c(C(F)(F)F)c4)cccc3c2)ncn1 | 202 to 204 °C |
| COC1C=C2CC(OC(C)=O)CCC2(C)C2CCC3(C)C(=O)CCC3C12 (stereo not drawn) | 175 to 178 °C |
| O=C(Nc1ccc(C(=O)N2CCc3cn[nH]c3-c3ncccc32)cc1)c1ccccc1-c1ccccc1 | 250 to 251 °C |
| Cc1cccc(C(C(O)C(C)(C)C)n2ccnc2)c1 (stereo not drawn) | 126 °C |
| C=Cc1cc(C(C)NC(=O)OC(C)(C)C)ccc1NS(=O)(=O)C=C (stereo not drawn) | 80 to 82 °C |
| CC(C)(C)OC(=O)NCC(=O)c1ccccc1 | 63 to 65 °C |
| CC(C)(C)OC(=O)N1[C@@H](C2CC2)[C@H](C(=O)O)OC1(C)C | 104 to 108 °C |
| Cc1sc(-c2ccccc2)nc1COc1ccc(COc2ncccc2C=O)cc1 | 101 to 102 °C |
| c1ccc(-n2ncc3c2-c2ccccc2C3)cc1 | 119 to 120 °C |
| Cn1c(CCN2CCN(Cc3ccccc3)CC2)nc2ccc3ccccc3c21 | 144 to 146 °C |
| O=C1CCC(N2C(=O)c3cccc(OCc4ccc(CN5CCSCC5)cc4)c3C2=O)C(=O)N1 (stereo not drawn) | 221 to 223 °C |
| Cc1nn(C)c(NC=O)c1C1=CCC(C)CC1 (stereo not drawn) | 97 to 99 °C |
| COc1cc(-c2cc(=O)c3ccc(OCCBr)cc3o2)cc(OC)c1OC | 184 to 185 °C |
| CN(C)CCOC(=O)CCc1c(C(=O)OCCN(C)C)[nH]c2cc(Cl)cc(Cl)c12 | 95 to 97 °C |
| CN(CCc1ccccc1)C(=O)Cn1cc(C(=O)O)c2cc(OCc3ccccc3)ccc21 | 182 to 185 °C |
| CCOC(=O)c1c(C)nc2c(cnn2CC)c1Cl | 54 to 56 °C |

| SMILES | melting point |
| --- | --- |
| Cc1ccc(S(=O)(=O)Oc2ccc(S(=O)(=O)c3c(C(C)C)cn4ncccc34)cc2)cc1 | 149 °C |
| COC/C=C(C)/C=C/C(F)=C(C)/C=C/c1c(C)sc(C)c1C | 117 to 118 °C |
| COC(=O)c1ccccc1S(=O)(=O)NC(=O)Nc1nc(COc2ccccc2)cc(OC)n1 | 178 to 180 °C |
| O=Cc1nn(-c2ccc(F)cc2)c2c1CCC2 | 123 to 125 °C |
| O=C(CF)NC[C@H]1CN(c2ccc(N3CCN(c4ccc([N+](=O)[O-])s4)CC3)c(F)c2)C(=O)O1 | 145 to 150 °C |
| CC(O)c1ccc(-c2ccc(OCc3ccc(Cl)cc3)cc2)cc1 (single isomer, unassigned; (+)) | 165 to 167 °C |
| CNC(=O)N1N=C(c2ccc(N)cc2)c2cc(OC)ccc2CC1C (stereo not drawn) | 190 to 191 °C |
| CCOc1ccc(S(=O)(=O)c2ccc(C)nc2Nc2c(C)cc(C)cc2C)cc1 | 157 to 159 °C |
| CCCNC(=S)NS(=O)(=O)c1c(NC(=O)OCC)sc(C)c1C#N | 167 to 168 °C |
| O=S1(=O)c2cccc3cccc(c23)N1CCCN1CCN(c2ccccc2)CC1 | 126 °C |
| O=C(O)c1ccccc1Oc1ccc2ccccc2c1 | 139 to 142 °C |
| COc1cc(F)ccc1Nc1ccc2c(c1)OCc1cc(N)ccc1C2=O | 38.9 °C |
| CC(Cc1ccncc1)(NC(=O)OC1C2CC3CC(C2)CC1C3)C(=O)NCCc1ccccc1 (stereo not drawn) | 176 °C |
| Cc1c(Oc2ncc(C(F)(F)F)cc2Cl)nn(C(=O)NC(C)C)c1C | 78 to 80 °C |
| Oc1cccc(C(O)CNCCCCn2cnc3ccccc32)c1 (stereo not drawn) | 58 to 62 °C |
| N#CN1CCC(=C2c3ccccc3Sc3cccnc32)CC1 | 192 to 193 °C |
| COCC(O)=C(N)C(=O)O | 186 to 187 °C |
| CCCc1nc(NCCO)nc(N2CCOCC2)n1 | 95 to 99 °C |
| Cc1ccccc1C(=NO)C(=O)OC(C)C | 77 to 78 °C |
| O=C(O)C=C(c1ccccc1)c1ccccc1 | 162 to 164 °C |

Now from value to compound:

| melting point | SMILES |
| --- | --- |
| 148 to 149 °C | CC(=O)Nc1c(F)cc(F)cc1SCC#N |
| 108 to 110 °C | CC1Oc2c(F)cc(CN3CCN(c4ccc(C(=O)NC5CC5)cc4)CC3)cc2NC1=O (stereo not drawn) |
| 70 °C | CCCCOc1c(OC)c(OC)cc(C)c1C(=O)c1c(Cl)cccc1Cl |
| 225 to 228 °C | CCOC(=O)c1ncc2[nH]c3ccc(Cl)cc3c2c1C |
| 184 to 185 °C | COC(=O)c1cc(C#N)ccc1NC(=O)c1cccc(S(=O)(=O)N2CCOCC2)c1 |
| 110 to 112 °C | Cc1ccccc1-c1nsc(SN)n1 |
| 258 °C | CCOC(=O)c1cn(C)c2ccc(C(=O)c3c(C)c(OC)c4ccccn34)cc2c1=O |
| 125 to 127 °C | CC1C(=O)Nc2c(C(=O)c3ccccc3)cccc21 (stereo not drawn) |
| 142 to 143 °C | Cc1cccc(-n2nc(C(N)=O)nc2-c2ccccc2)c1 |
| 253 °C | Cn1nccc1C(=O)Nc1cc(Oc2ccc3nc(NC(=O)C4CC4)cn3n2)ccc1F |
| 149 to 152 °C | COc1cc(/C=C2/C(C)=C(CC(=O)O)c3cc(F)ccc32)cc(OC)c1OC |
| 105 to 108 °C | CS(=O)c1ccc(OCc2ccccc2)c(CCCc2ccc(C(=O)NCCO)cc2)c1 (stereo not drawn) |
| 204 to 209 °C | COc1ccc(OC)c(S(=O)(=O)n2c(CCC(=O)O)cc3nc(Cl)ccc32)c1 |
| 247 to 248 °C | C[C@]12CCC(=O)N[C@@H]1CCc1cc(-c3cccc4ccccc34)ccc12 |
| 230 °C | CC(=O)CC1=C(C#N)C(c2cccc(C#N)c2Br)c2c[nH]nc2N1 (stereo not drawn) |
| 124 to 126 °C | CCC(=O)OCOC(=O)C1=C(C)NC(C)=C(C(=O)OC)C1c1cccc(Cl)c1Cl (stereo not drawn) |
| 256 to 258 °C | COc1ccc(CN(C)C(=O)CCCOc2ccc3c(c2)CN2CC(=O)NC2=N3)cc1 |
| 230 to 232 °C | N#Cc1cn(-c2ccc(C(F)(F)F)cc2)c(=O)[nH]c1=O |

| melting point | SMILES |
| --- | --- |
| 159 to 161 °C | Cc1nc(-c2ccccc2)cc(-c2cccc([N+](=O)[O-])c2)c1NC(=O)NCCN(C)C |
| 205 to 206 °C | COCCc1nc2c(N)nc3ccccc3c2n1CC1(O)CCOCC1 |
| 128 to 130 °C | CCOC(=O)C1=C(N)NC(N)=C(C(=O)OCC)C1c1ccccc1F |
| > 265 °C | COc1cc2cc3ncc(C#N)c(Cl)c3cc2cc1OC |
| 211 to 213 °C | CC(C)C(=O)NCc1ccc(-c2csc(N=C(N)N)n2)o1 |
| 104 to 107 °C | Cc1ccc(C(=O)c2ccc(Cc3ccc(N)cn3)n2C)cc1 |
| 206 to 208 °C | Cc1nc(-c2cccc(C(F)(F)F)c2)c2nc(-c3ccccc3)cc-2[nH]1 |
| 153 to 156 °C | CC(Br)C(=O)c1ccc2c(c1)C(C)NC(=O)N2 (stereo not drawn) |
| 109 to 113 °C | CN1CCN(c2cc(Cl)cc3c2c(=O)n(Cc2ccc([N+](=O)[O-])cc2)c(=O)n3Cc2ccccc2)CC1 |
| 202 to 204 °C | Cc1ccc(-c2cc(=O)c(Br)c(C(=O)O)o2)cc1 |
| 207 to 209 °C | N#CC1CN(C(=O)[C@H](NC(=O)c2c[nH]c3ncc(-c4ccc(C(F)(F)F)cc4)nc23)C2CC2)C1 |
| 189 to 191 °C | COC(=O)c1ccc(I)c2c(=O)c3ccccc3[nH]c12 |
| 236 to 237 °C | CCC1Cc2c(nc3ccc(F)cc3c2C(=O)O)-c2ccc(-c3ccccc3F)cc21 (stereo not drawn) |
| 126 to 127 °C | CC(C)NCC(O)COc1ccc(NC(=O)C(C)C)cc1C#N (stereo not drawn) |
| 76 to 78 °C | CCC(C#N)(CC)c1nsc2ccc(-n3c(=O)cc(C(F)(F)F)n(C)c3=O)cc12 |
| 140 to 145 °C | O=C(O)Cc1c(Cl)nc(-c2ccc(O)cc2)n1Cc1ccccc1 |
| 215 to 219 °C | COC(=O)c1ccc(-c2nc3c(O)cccc3s2)cc1 |
| 203 to 205 °C | COc1cccc([C@H]2O[C@H](CC(=O)Nc3ncc(CCC(=O)O)s3)C(=O)N(CC(C)(C)CO)c3ccc(Cl)cc32)c1OC |
